Our source for the IC50 values is patent publication US8097617B2, “Organic compounds” (Novartis AG, priority 2006, dated 2012).

The term IC50 denotes the midpoint of a concentration-inhibition curve.

The assay deals with T1, human DPP-IV (Homo sapiens, UniProt P27487).
T1 construct: Human DPP-IV consisting of amino acids 39 to 766 followed by a C-terminal Streptavidin-tag; Streptavidin-tag (C); made in house
The experiment in a line: DPP-IV inhibitory activity assay, fluorogenic substrate H-Gly-Pro-AMC. It is filed as biochemical. As to conditions: recombinant human DPP-IV (aa 39-766), substrate H-Gly-Pro-AMC 10 μM, room temperature, 1 hour; read-out: IC50 (inhibitory activity to human DPP-4). As for the experimental part: Some of Compounds 1 to 40 were tested for their inhibitory activity to human DPP-IV.
Human DPP-IV consisting of amino acids 39 to 766 followed by a C-terminal Streptavidin-tag was expressed using the baculovirus system and purified to >80% purity. The enzyme was stored in 25 mM Tris buffer, pH 9.0, containing 300 mM NaCl at −80° C.
The fluorogenic substrates H-Gly-Pro-AMC was purchased from Bachem AG (Bubendorf, Switzerland). The substrate was kept as a 5 mM stock solution in DMSO at −20° C. All other chemicals were purchased from Sigma (Buchs, Switzerland).
The assay buffer for the DPP-IV reaction was 25 mM Tris/HCl, pH 7.5, containing 140 mM NaCl, 10 mM KCl and 0.05% (w/v) CHAPS.
The test compounds were dissolved in 90% DMSO/10% H2O (v/v). Serial dilutions of the compounds from 3 mM to 0.03 μM in 90% DMSO/10% H2O (v/v) followed by a 1:33.3 dilution in assay buffer was done in 96-well polypropylene plates using a CyBio Dilus 8-channel pipettor (CyBio AG, Jena, Germany) with tip change after each pipetting step. The compound solutions as well as the substrate and the enzyme solutions were transferred to the assay plates (384-well black Cliniplate; cat. no. 95040020 Labsystems Oy, Finland) by means of a CyBi-Well 96-channel pipettor (CyBio AG, Jena, Germany).
Enzyme kinetics were measured by mixing 10 μl of a 3-fold concentrated substrate solution in assay buffer (final substrate concentration was 10 μM) with 10 μl of the corresponding compound solution. The reactions were initiated by addition of 10 μl of a 3-fold concentrated solution of the enzyme in assay buffer. Final enzyme (active site) concentrations in the assay was […] for DPP-IV. Fluorescence product (AMC) formation was monitored for 1 hour at room temperature at 35 second intervals by measuring the fluorescence emission at 500 nm using an exitation wavelength of 350 nm in a TECAN Ultra fluorescence reader (TECAN, Maennedorf, Switzerland). The fluorescence in each well was excited by one flash per measurement. The Origin software package (Origin 7.5 Mircocal, Northampton, Mass., USA) was used to generate all graphs and to perform the IC50 calculations.

Each structure is given as a SMILES string.

T1 sequence (P27487 39-766): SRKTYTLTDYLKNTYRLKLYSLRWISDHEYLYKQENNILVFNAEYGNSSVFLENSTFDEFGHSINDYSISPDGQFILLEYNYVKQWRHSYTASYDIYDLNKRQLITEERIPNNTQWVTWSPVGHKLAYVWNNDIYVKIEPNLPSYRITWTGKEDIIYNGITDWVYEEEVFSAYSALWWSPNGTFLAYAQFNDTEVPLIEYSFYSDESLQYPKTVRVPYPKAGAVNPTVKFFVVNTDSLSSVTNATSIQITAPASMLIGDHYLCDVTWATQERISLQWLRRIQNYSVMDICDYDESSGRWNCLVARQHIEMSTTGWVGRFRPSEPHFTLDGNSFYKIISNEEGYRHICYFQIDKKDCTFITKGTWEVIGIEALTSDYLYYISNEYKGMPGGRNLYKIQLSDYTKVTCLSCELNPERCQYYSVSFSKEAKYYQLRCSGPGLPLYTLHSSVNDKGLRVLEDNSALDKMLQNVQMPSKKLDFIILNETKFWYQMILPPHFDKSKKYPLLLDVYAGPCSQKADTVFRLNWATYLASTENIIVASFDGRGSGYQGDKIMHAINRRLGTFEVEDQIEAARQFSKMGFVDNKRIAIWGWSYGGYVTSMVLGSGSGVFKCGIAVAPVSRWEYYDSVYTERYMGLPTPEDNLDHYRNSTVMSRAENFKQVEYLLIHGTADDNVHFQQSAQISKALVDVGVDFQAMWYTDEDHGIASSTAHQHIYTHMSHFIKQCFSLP

In the case of `NCc1cc2ncc(C(=O)N3CCOCC3)n2cc1-c1ccc(Cl)cc1Cl` [Compound 27a, [7-Aminomethyl-6-(2,4-dichloro-phenyl)-imidazo[1,2-a]pyridin-3-yl]-morpholin-4-yl-methanone], the IC50 was 0.022 µM.

Consider `CN1CCC(C(=O)Nc2nnc3cc(CN)c(-c4ccc(Cl)cc4Cl)cn23)CC1` [Compound 18b, 1-Methyl-piperidine-4-carboxylic acid [7-aminomethyl-6-(2,4-dichloro-phenyl)-[1,2,4]triazolo[4,3-a]pyridin-3-yl]-amide], for which the IC50 came out at 0.025 µM.

For `COCCN(C)c1cnc2cc(CN)c(-c3ccc(Cl)cc3Cl)cn12` [Compound 7, [7-Aminomethyl-6-(2,4-dichloro-phenyl)-imidazo[1,2-a]pyridin-3-yl]-(2-methoxy-ethyl)-methyl-amine], the IC50 is 0.023 µM. As for `NCc1cc2ncc(-c3ccc(F)c(F)c3)n2cc1-c1ccc(Cl)cc1Cl` [Compound 4d, C-[6-(2,4-Dichloro-phenyl)-3-(3,4-difluoro-phenyl)-imidazo[1,2-a]pyridin-7-yl]-methylamine], the IC50 came to 0.023 µM.
